The source of these data is patent publication US20260272897A1 (Bayer Aktiengesellschaft, priority 2024, published 2026).

The test system of data set [1] is patients with heart failure and a left ventricular ejection fraction ≥40%. The format is in vivo.
For data set [2] the following is noted: in vivo; cited from earlier work.

Where two headings read alike, the source gives them in different places.

For `CCOc1ncc(C)c2c1[C@H](c1ccc(C#N)cc1OC)C(C(N)=O)=C(C)N2` [finerenone, (4S)-4-(4-cyano-2-methoxyphenyl)-5-ethoxy-2,8-dimethyl-1,4-dihydro-1,6-naphthyridine-3-carboxamide], the entries for the “Total worsening HF events: Event rate per 100 PY” value in data set [1] (bilirubin Tertile 2 0.5-0.6 mg/dL) and in data set [1] (bilirubin Tertile 3 ≥0.7 mg/dL) were 9.7 per 100 PY and 12.6 per 100 PY, respectively. The “primary events (total worsening heart failure events and cardiovascular death), number of events” value in data set [1] (finerenone group, median 32 months) is recorded as 1,083. Also, the active metabolites entry in data set [2] is listed as “no active metabolites”.
